# Measurements taken from patent US9988635B2, “Modulation of growth hormone receptor expression and insulin-like growth factor expression” (Antisense Therapeutics Limited, priority 2003, dated 2018).
# In the oligonucleotide strings, read from the 5' end, every base follows the letter of its sugar. An asterisk marks phosphorothioate; unmarked linkages are phosphodiester. Other units and linkages are bracketed, terminal groups are in braces. A string of capitals states the bases alone. e = 2'-O-(2-methoxyethyl) (MOE); [5mC] = 5-methylcytosine; d = 2'-deoxy (DNA)
# Test system: human growth hormone receptor mRNA
# Test: Inhibition of human growth hormone receptor mRNA levels in MCF7 cells, quantitative real-time PCR
# Assay type: cell-based
# Set-up: concentration or dose not given beside the values
# Conditions: averages from three experiments
# Protocol: (§1) The human breast carcinoma cell line MCF-7 was obtained from the American Type Culture Collection (Manassas, Va.). MCF-7 cells were routinely cultured in DMEM low glucose (Gibco/Life Technologies, Gaithersburg, Md.) supplemented with 10% fetal calf serum (Gibco/Life Technologies, Gaithersburg, Md.). Cells were routinely passaged by trypsinization and dilution when they reached 90% confluence. Cells were seeded into 96-well plates (Falcon-Primaria #3872) at a density of 7000 cells/well for use in RT-PCR analysis.
# (§2) When cells reached 65-75% confluency, they were treated with oligonucleotide. For cells grown in 96-well plates, wells were washed once with 100 μL OPTI-MEM™-1 reduced-serum medium (Invitrogen Corporation, Carlsbad, Calif.) and then treated with 130 μL of OPTI-MEM™-1 containing 3.75 μg/mL LIPOFECTIN™ (Invitrogen Corporation, Carlsbad, Calif.) and the desired concentration of oligonucleotide. Cells are treated and data are obtained in triplicate. After 4-7 hours of treatment at 37° C., the medium was replaced with fresh medium. Cells were harvested 16-24 hours after oligonucleotide treatment.
# (§3) Total RNA was isolated using an RNEASY 96™ kit and buffers purchased from Qiagen Inc. (Valencia, Calif.) following the manufacturer's recommended procedures. Briefly, for cells grown on 96-well plates, growth medium was removed from the cells and each well was washed with 200 μL cold PBS. 150 μL Buffer RLT was added to each well and the plate vigorously agitated for 20 seconds. 150 μL of 70% ethanol was then added to each well and the contents mixed by pipetting three times up and down. The samples were then transferred to the RNEASY 96™ well plate attached to a QIAVAC™ manifold fitted with a waste collection tray and attached to a vacuum source. Vacuum was applied for 1 minute. 500 μL of Buffer RW1 was added to each well of the RNEASY 96™ plate and incubated for 15 minutes and the vacuum was again applied for 1 minute. An additional 500 μL of Buffer RW1 was added to each well of the RNEASY 96™ plate and the vacuum was applied for 2 minutes. 1 mL of Buffer RPE was then added to each well of the RNEASY 96™ plate and the vacuum applied for a period of 90 seconds. The Buffer RPE wash was then repeated and the vacuum was applied for an additional 3 minutes. The plate was then removed from the QIAVAC™ manifold and blotted dry on paper towels. The plate was then re-attached to the QIAVAC™ manifold fitted with a collection tube rack containing 1.2 mL collection tubes. RNA was then eluted by pipetting 140 μL of RNAse free water into each well, incubating 1 minute, and then applying the vacuum for 3 minutes.
# (§4) Quantitation of growth hormone receptor mRNA levels was accomplished by real-time quantitative PCR using the ABI PRISM™ 7600, 7700, or 7900 Sequence Detection System (PE-Applied Biosystems, Foster City, Calif.) according to manufacturer's instructions. This is a closed-tube, non-gel-based, fluorescence detection system which allows high-throughput quantitation of polymerase chain reaction (PCR) products in real-time. As opposed to standard PCR in which amplification products are quantitated after the PCR is completed, products in real-time quantitative PCR are quantitated as they accumulate. This is accomplished by including in the PCR reaction an oligonucleotide probe that anneals specifically between the forward and reverse PCR primers, and contains two fluorescent dyes. A reporter dye (e.g., FAM or JOE, obtained from either PE-Applied Biosystems, Foster City, Calif., Operon Technologies Inc., Alameda, Calif. or Integrated DNA Technologies Inc., Coralville, Iowa) is attached to the 5′ end of the probe and a quencher dye (e.g., TAMRA, obtained from either PE-Applied Biosystems, Foster City, Calif., Operon Technologies Inc., Alameda, Calif. or Integrated DNA Technologies Inc., Coralville, Iowa) is attached to the 3′ end of the probe. When the probe and dyes are intact, reporter dye emission is quenched by the proximity of the 3′ quencher dye. […]
row,Substance,% INHIB of human growth hormone receptor mRNA levels [%]
1,272355 (antisense eT*eT*eG*eA*eG*dT*dG*dT*dT*d[5mC]*d[5mC]*dT*dA*dA*dA*eA*eT*eG*eA*eA) [compound 272355],24
2,272356 (antisense eA*eT*eG*eG*eA*dG*dG*d[5mC]*dT*dG*dG*dA*dG*dG*dT*eT*e[5mC]*eA*eA*eA) [compound 272356],63
3,272357 (antisense eT*eA*eG*eG*eG*dT*d[5mC]*d[5mC]*dA*dT*d[5mC]*dT*dT*dT*d[5mC]*eA*eA*eG*eA*e[5mC]) [compound 272357],62
4,272358 (antisense eT*e[5mC]*eT*e[5mC]*e[5mC]*dA*dG*dA*dT*dA*dG*dA*dA*dT*d[5mC]*eT*eA*eA*eA*e[5mC]) [compound 272358],53
5,272359 (antisense eT*e[5mC]*e[5mC]*eA*eA*dA*dT*dA*dT*dT*d[5mC]*dT*dG*dG*dT*eA*e[5mC]*eT*eT*eT) [compound 272359],72
6,272360 (antisense eT*eA*eT*eT*eA*dG*dT*dT*dA*d[5mC]*d[5mC]*dT*dT*dG*dA*eG*eG*eA*eG*eA) [compound 272360],0
7,272361 (antisense eA*eT*eT*eT*eT*d[5mC]*d[5mC]*dT*dT*d[5mC]*d[5mC]*dT*dA*dG*dA*eA*eA*eA*eT*eA) [compound 272361],10

# Test system: mouse growth hormone receptor mRNA
# Test: Inhibition of mouse growth hormone receptor mRNA levels in b.END cells, quantitative real-time PCR, incl. dose-response
# Assay type: cell-based
# Conditions: averages from three experiments
# Protocol: as §1, with “mouse brain endothelial” for “human breast carcinoma”, “b.END” for “MCF-7”, “from Dr. Werner Risau at” for “from”, “Max Plank Instititute (Bad Nauheim, Germany). b.END” for “American Type Culture Collection (Manassas, Va.). MCF-7”, “DMEM, high” for “DMEM low”, “3000” for “7000”
# as §2, §3
# as §4, with “probe.” for “probe. When the probe and dyes are intact, reporter dye emission is quenched by the proximity of the 3′ quencher dye.”
row,Substance,% INHIB of mouse growth hormone receptor mRNA levels [%]
1,227443 (antisense eT*eG*e[5mC]*eT*eT*dG*dG*d[5mC]*dA*dG*d[5mC]*dT*d[5mC]*dG*dT*eG*eG*eG*eT*eT) [compound 227443],0
2,227444 (antisense eA*eT*eG*eG*e[5mC]*dT*dG*d[5mC]*dG*d[5mC]*d[5mC]*dT*dG*d[5mC]*dT*eT*eG*eG*e[5mC]*eA) [compound 227444],53
3,227445 (antisense eT*eA*e[5mC]*e[5mC]*eT*dG*dA*dG*dA*d[5mC]*d[5mC]*dT*d[5mC]*dG*dG*eA*eG*eT*eT*eT) [compound 227445],69
4,227446 (antisense eA*e[5mC]*eA*eA*eA*dG*dA*dT*d[5mC]*d[5mC]*dA*dT*dA*d[5mC]*d[5mC]*eT*eG*eA*eG*eA) [compound 227446],87
5,227447 (antisense eG*e[5mC]*eT*eG*eG*dT*dG*dT*dA*dG*d[5mC]*d[5mC]*dT*d[5mC]*dA*e[5mC]*eT*eT*e[5mC]*e[5mC]) [compound 227447],77
6,227448 (antisense eT*eT*eT*eG*e[5mC]*d[5mC]*dA*dA*dG*dA*dG*dT*dA*dG*d[5mC]*eT*eG*eG*eT*eG) [compound 227448],60
7,227449 (antisense eA*e[5mC]*eG*eA*e[5mC]*dA*d[5mC]*dT*dT*dG*dG*dT*dG*dA*dA*eT*e[5mC]*eG*eA*eG) [compound 227449],69
8,227450 (antisense eT*eG*eG*e[5mC]*eT*dT*dT*d[5mC]*d[5mC]*d[5mC]*dT*dT*dT*dT*dA*eG*e[5mC]*eA*eT*eA) [compound 227450],71
9,227451 (antisense eA*eT*eG*eA*eG*d[5mC]*dA*dA*dT*dT*d[5mC]*dT*dT*dG*d[5mC]*eA*eG*e[5mC]*eT*eT) [compound 227451],49
10,227454 (antisense eA*eG*eT*eT*eG*dA*dA*dG*dT*dA*dA*d[5mC]*dA*dG*d[5mC]*eT*eG*eT*eT*eT) [compound 227454],69
11,227455 (antisense eA*eG*eT*eA*eG*dG*dG*dT*dA*dT*d[5mC]*d[5mC]*dA*dA*dA*eT*eG*eG*eA*eG) [compound 227455],43
12,227456 (antisense eG*eT*e[5mC]*e[5mC]*eA*dG*dT*dT*dG*dA*dG*dG*d[5mC]*d[5mC]*dA*eA*eT*eG*eG*eG) [compound 227456],97
13,227457 (antisense eG*eA*eA*eT*eT*dA*dT*d[5mC]*d[5mC]*dA*dT*d[5mC]*d[5mC]*d[5mC]*dT*eT*e[5mC]*eA*eG*eA) [compound 227457],67
14,227458 (antisense eG*eT*eA*e[5mC]*eT*dG*dA*dA*dT*dT*dT*d[5mC]*dA*dT*dA*e[5mC]*eT*e[5mC]*e[5mC]*eA) [compound 227458],75
15,227459 (antisense e[5mC]*eT*eG*eA*eA*d[5mC]*dT*d[5mC]*dG*d[5mC]*dT*dG*dT*dA*d[5mC]*eT*eT*eT*eT*e[5mC]) [compound 227459],60
16,227460 (antisense eA*eA*e[5mC]*eT*eG*dG*dA*dT*dA*dT*d[5mC]*dT*dT*d[5mC]*dT*eT*e[5mC]*eA*e[5mC]*eA) [compound 227460],43
17,227461 (antisense eT*eG*e[5mC]*eT*eA*d[5mC]*dT*d[5mC]*d[5mC]*dA*dA*dA*dT*dA*dT*eT*e[5mC]*e[5mC]*eA*eA) [compound 227461],75
18,227462 (antisense eG*e[5mC]*eT*eT*eT*dG*dA*dA*dA*dA*dT*dA*dT*dA*dA*e[5mC]*eT*eA*e[5mC]*eA) [compound 227462],31
19,227463 (antisense eA*eT*e[5mC]*eA*eG*d[5mC]*dA*dT*d[5mC]*dT*dT*dA*dA*dT*d[5mC]*e[5mC]*eT*eT*eT*eG) [compound 227463],39
20,227465 (antisense eT*eG*eA*eG*eA*dA*dG*dA*dT*d[5mC]*dT*dG*dG*dA*dT*e[5mC]*eA*eA*eT*e[5mC]) [compound 227465],51
21,227466 (antisense eT*eT*eG*eT*eA*dG*dT*dT*dA*dT*d[5mC]*dA*dT*dG*dA*eA*eT*eG*e[5mC]*e[5mC]) [compound 227466],50
22,227467 (antisense e[5mC]*eA*eT*e[5mC]*eA*dT*dT*dG*dT*dA*dG*dA*dA*dG*dT*e[5mC]*eG*eG*eG*eT) [compound 227467],33
23,227470 (antisense e[5mC]*eT*e[5mC]*e[5mC]*eA*dA*dG*dG*dA*dT*dA*d[5mC]*d[5mC]*dA*dG*e[5mC]*eT*eG*eA*eT) [compound 227470],82
